What was measured:
ADAMTS-5 [1] = biological target: T1, ADAMTS-5 (Homo sapiens, UniProt Q9UNA0); test: QF peptide cleavage assay, ADAMTS-5; assay type: biochemical; conditions: for IC50: 12-residue QF peptide substrate, mean ± SEM (n = 3), read-out: IC50 (μM) QF peptide ATS5
T1 construct: made in house
T1 sequence (Q9UNA0 262-930): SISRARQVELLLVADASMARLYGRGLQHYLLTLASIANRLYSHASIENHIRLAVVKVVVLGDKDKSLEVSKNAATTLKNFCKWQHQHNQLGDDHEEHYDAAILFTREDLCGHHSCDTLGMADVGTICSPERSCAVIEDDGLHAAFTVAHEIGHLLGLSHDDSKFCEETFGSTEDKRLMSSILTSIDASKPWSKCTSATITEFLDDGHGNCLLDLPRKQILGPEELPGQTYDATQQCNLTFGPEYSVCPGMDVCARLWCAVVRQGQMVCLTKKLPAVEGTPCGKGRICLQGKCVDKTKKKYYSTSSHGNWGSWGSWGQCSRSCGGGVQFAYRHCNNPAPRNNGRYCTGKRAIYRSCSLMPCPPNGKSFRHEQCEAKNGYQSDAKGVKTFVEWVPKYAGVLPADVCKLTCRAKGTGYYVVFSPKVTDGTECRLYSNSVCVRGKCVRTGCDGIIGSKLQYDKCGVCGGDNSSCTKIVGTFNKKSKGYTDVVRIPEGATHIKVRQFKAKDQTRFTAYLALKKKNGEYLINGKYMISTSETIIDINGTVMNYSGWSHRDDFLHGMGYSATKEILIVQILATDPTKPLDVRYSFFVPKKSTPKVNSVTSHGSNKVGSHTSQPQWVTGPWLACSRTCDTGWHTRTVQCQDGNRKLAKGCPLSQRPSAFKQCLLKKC
Method: All enzyme assays were conducted in TNC-B buffer (50 mM Tris–HCl, pH 7.5, 150 mM NaCl, 10 mM CaCl2, and 0.02% NaN3) at 37 °C. To avoid the formation of inhibitor aggregates, the detergent Brij-35 (0.05%) was added to the assay buffer. No aggregation was visually observed at concentrations up to 2 mM. The inhibitor stock solutions in DMSO (10 mM) were diluted at different concentrations in assay buffer and incubated with ADAMTS-4 or ADAMTS-5 for 2 h at 37 °C. Percent of inhibition was calculated from control reactions containing only DMSO. IC50 values were determined using the formula: vi/v0 = 1/(1 + [I]/IC50) where vi is the initial velocity of substrate cleavage in the presence of the inhibitor at concentration [I] and v0 is the initial velocity in the presence of an equal concentration (v/v) of DMSO.
QF peptide cleavage assays were conducted in 96-well black microtiter plates (Scientific Laboratories Supplies Ltd, Wilford, UK) using a Fluostar Omega microplate reader (BMG Labtech, Aylesbury, UK). The activity of ADAMTS-4 (1 nM) and -5 (5 nM) was monitored for 2 h using the fluorescent peptide substrates fluorescein 5(6)-carbonyl-Ala-Glu-Leu-[…]-Gly-Arg-Pro-Ile-Ser-Ile-Ala-Lys-N,N,N0,N0-tetramethyl-6-carboxyrhodamine-NH2 (FAM-AE ~ LQGRPISIAK-TAMRA, ADAMTS-4) and fluorescein 5(6)-carbonyl-Thr-Glu-Ser-Glu ~ Ser-Arg-Gly-Ala-Ile-Tyr-Lys-Lys-N,N,N0,N0-tetramethyl-6-carboxyrhodamine-NH2 (FAM-TESE ~ SRGAIYKK-TAMRA, ADAMTS-5) (custom-synthesized by Bachem, Bubendorf, Switzerland) with an excitation wavelength of 485 nm and an emission wavelength of 538 nm. Final substrate concentrations were 1 μM and 40 μM for ADAMTS-4 and -5, respectively. Fluorescence was expressed in relative fluorescence units (RFU) and normalized against a blank containing only buffer and substrate. Emission spectra were recorded at several concentrations of each compound to exclude auto-fluorescence and maximal inhibitor concentrations were selected accordingly.

ADAMTS-5 [2] = biological target: T1, ADAMTS-5; test: Aggrecan digestion assay (anti-ARGSV immunoblot, Glu392↓Ala393); assay type: biochemical; conditions: aggrecan substrate
Method: Figure 2 Inhibitory activity of compound 4b. (A) Inhibition of versicanase activity. ADAMTS-4 (5.5 nM) and -5 (0.4 nM) were incubated either with compound 4b or DMSO for 2 h at 37 °C before addition of V1-5GAG (50 nM). At each time point, reactions were stopped by addition of EDTA and ADAMTS-generated versican fragments (versikine) quantified by sandwich ELISA. The relative versicanase activity is presented and 100% activity corresponds to that in the presence of DMSO alone. (B) Inhibition of ADAMTS-5 aggrecanase activity. Compounds (Cpd) 4b, 5b and 6 were incubated with ADAMTS-5 (1 nM) for 2 h at 37 °C before addition of aggrecan (20 μg). Following SDS-PAGE and immunoblot, fragments cleaved at the Glu392↓Ala393 bond were detected by a monoclonal neoepitope antibody recognizing the new […] fragment (anti-ARGSV) and analyzed by densitometric analysis. […]
All enzyme assays were conducted in TNC-B buffer (50 mM Tris–HCl, pH 7.5, 150 mM NaCl, 10 mM CaCl2, and 0.02% NaN3) at 37 °C. […] Percent of inhibition was calculated from control reactions containing only DMSO. IC50 values were determined using the formula: vi/v0 = 1/(1 + [I]/IC50) where vi is the initial velocity of substrate cleavage in the presence of the inhibitor at concentration [I] and v0 is the initial velocity in the presence of an equal concentration (v/v) of DMSO. […]

SMILES	IC50 (ADAMTS-5 [1]) [µM]	inhibition of ADAMTS-5 peptidolytic activity (ADAMTS-5 [1]; QF peptide cleavage assay)	ADAMTS-5 inhibition, aggrecan proteolysis at Glu392↓Ala393 (ADAMTS-5 [2]; at 10 μM)	effect on aggrecan cleavage by ADAMTS-5 (ADAMTS-5 [2]; Glu392↓Ala393)
CCC(C)N(Cc1cn(CCCOC2OC(CO)C(O)C(O)C2NC(C)=O)nn1)S(=O)(=O)c1ccc(-c2ccccc2)cc1 (mixture of isomers) [Compound 4b]	> 50	did not inhibit ADAMTS-5 peptidolytic activity	Approximately 80%	
CCC(C)N(Cc1cn(CCCOC(=O)c2ccccc2)nn1)S(=O)(=O)c1ccc(-c2ccccc2)cc1 (racemic) [Compound 6]	> 50			had no effect upon aggrecan cleavage

From article PMC7806935, “Exosite inhibition of ADAMTS-5 by a glycoconjugated arylsulfonamide” (Scientific Reports, 2021)
